{"source": "ChEMBL document CHEMBL5465560", "about": "“Selectivity Literature for EUbOPEN Chemogenomic Library” (2024)", "key": {"[1]": {"biological_target": "T1, Ribosomal protein S6 kinase alpha-1 (Homo sapiens, UniProt Q15418)", "T1 sequence (Q15418 whole entry)": "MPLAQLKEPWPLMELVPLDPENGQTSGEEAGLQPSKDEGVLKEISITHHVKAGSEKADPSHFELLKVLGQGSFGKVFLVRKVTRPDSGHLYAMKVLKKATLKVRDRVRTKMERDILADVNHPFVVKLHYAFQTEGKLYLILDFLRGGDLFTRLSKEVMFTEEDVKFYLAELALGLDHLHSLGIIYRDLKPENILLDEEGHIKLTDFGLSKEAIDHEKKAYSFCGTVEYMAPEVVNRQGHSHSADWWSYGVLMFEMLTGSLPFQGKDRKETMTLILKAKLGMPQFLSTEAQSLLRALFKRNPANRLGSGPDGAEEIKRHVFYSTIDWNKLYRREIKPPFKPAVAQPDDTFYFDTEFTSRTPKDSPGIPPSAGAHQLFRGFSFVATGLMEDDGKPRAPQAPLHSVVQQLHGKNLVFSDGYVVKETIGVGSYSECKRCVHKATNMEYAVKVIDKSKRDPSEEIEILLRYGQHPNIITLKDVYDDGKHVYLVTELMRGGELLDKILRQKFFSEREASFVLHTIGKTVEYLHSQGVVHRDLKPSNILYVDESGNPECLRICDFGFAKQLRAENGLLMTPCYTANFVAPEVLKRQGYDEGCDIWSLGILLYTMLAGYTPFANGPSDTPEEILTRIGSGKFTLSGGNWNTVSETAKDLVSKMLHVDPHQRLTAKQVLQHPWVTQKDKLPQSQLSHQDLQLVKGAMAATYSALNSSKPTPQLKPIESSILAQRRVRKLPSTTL", "assay": "Selectivity interaction (KinomeScan (DiscoverX)) EUB0001049a RPS6KA1", "conditions": "at 1 µM"}, "[2]": {"biological_target": "T2, Ephrin type-A receptor 1 (Homo sapiens) (UniProt P21709)", "T2 sequence (whole entry)": "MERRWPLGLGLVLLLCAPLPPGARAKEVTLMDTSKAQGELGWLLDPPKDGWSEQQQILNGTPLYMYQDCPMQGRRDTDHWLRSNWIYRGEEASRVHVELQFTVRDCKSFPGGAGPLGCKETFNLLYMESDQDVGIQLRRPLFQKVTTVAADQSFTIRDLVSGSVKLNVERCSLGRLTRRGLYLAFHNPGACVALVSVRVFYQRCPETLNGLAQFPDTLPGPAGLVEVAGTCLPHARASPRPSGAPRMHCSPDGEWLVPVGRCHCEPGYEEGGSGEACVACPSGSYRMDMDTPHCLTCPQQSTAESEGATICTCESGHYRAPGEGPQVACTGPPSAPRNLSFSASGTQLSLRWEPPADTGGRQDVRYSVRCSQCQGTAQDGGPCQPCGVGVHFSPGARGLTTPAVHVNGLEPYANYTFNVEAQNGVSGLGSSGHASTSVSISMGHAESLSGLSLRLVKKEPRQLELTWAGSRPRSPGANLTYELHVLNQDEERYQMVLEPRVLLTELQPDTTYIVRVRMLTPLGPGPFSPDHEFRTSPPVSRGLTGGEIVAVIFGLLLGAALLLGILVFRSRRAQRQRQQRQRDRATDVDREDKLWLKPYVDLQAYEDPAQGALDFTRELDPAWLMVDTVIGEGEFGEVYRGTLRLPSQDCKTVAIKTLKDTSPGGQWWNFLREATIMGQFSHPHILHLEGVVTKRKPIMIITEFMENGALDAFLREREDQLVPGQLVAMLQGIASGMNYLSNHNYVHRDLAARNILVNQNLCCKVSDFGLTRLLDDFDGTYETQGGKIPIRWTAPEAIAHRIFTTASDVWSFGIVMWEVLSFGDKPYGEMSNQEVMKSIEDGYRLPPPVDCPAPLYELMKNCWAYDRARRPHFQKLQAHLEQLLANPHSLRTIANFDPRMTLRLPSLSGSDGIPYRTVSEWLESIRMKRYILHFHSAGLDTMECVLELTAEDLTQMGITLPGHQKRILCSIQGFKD", "assay": "Selectivity interaction (Ambit KINOMEscan and KiNATiv profiling in Jurkat cells) EUB0000090b EPHA1", "assay_type": "cell-based", "conditions": "at 1 µM"}, "[3]": {"biological_target": "T3, Cyclin-dependent kinase 11A (Homo sapiens) (UniProt Q9UQ88)", "T3 sequence (whole entry)": "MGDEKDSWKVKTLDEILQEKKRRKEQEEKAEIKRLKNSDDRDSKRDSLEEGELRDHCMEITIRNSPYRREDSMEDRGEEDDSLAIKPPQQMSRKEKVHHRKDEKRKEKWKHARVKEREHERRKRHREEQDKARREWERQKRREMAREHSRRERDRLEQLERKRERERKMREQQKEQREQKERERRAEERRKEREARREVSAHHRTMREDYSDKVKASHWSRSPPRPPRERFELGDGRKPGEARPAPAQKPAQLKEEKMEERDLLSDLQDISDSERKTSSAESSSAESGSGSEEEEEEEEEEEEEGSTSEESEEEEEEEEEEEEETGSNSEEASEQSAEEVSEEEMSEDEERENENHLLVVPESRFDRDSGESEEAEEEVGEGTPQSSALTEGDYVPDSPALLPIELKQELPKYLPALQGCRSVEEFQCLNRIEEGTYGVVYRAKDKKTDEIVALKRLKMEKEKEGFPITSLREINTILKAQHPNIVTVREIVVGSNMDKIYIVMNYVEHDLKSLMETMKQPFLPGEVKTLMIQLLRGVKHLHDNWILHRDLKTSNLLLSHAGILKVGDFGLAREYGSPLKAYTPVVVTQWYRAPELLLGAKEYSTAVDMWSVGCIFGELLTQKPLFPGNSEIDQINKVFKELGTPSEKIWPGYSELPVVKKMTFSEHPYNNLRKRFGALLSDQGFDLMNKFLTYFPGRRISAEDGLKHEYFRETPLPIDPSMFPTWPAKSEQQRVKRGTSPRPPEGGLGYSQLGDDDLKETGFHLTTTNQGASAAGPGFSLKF", "assay": "Selectivity interaction (Ambit KINOMEscan and KiNATiv profiling in Jurkat cells) EUB0000090b CDK11A", "assay_type": "cell-based", "conditions": "at 1 µM"}, "[4]": {"biological_target": "Proto-oncogene tyrosine-protein kinase receptor Ret (Homo sapiens, UniProt P07949)", "assay": "Selectivity interaction (Kinase panel (Invitrogen)) EUB0000639a RET", "conditions": "at 200 nM"}, "[5]": {"biological_target": "Polycomb protein EED (Homo sapiens) (UniProt O75530)", "sequence (O75530 2-441 limits assumed)": "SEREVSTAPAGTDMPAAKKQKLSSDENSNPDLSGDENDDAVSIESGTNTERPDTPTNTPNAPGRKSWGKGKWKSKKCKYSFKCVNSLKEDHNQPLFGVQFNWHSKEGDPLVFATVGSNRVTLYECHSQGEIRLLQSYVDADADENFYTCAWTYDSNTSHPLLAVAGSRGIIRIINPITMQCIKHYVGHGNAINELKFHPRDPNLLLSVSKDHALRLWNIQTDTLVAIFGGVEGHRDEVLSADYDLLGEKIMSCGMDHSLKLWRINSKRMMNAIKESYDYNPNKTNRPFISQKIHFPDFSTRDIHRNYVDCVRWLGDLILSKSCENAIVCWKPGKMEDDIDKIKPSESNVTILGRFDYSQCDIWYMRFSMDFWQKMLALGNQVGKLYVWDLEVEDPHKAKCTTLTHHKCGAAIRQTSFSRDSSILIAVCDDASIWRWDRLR", "assay": "Selectivity interaction (PWWP, WD40, and Tudor domain panel (DSLS measurements, literature)) EUB0000270b EED"}, "[6]": {"biological_target": "T4, Alpha-2A adrenergic receptor (Homo sapiens) (UniProt P08913)", "T4 sequence (whole entry)": "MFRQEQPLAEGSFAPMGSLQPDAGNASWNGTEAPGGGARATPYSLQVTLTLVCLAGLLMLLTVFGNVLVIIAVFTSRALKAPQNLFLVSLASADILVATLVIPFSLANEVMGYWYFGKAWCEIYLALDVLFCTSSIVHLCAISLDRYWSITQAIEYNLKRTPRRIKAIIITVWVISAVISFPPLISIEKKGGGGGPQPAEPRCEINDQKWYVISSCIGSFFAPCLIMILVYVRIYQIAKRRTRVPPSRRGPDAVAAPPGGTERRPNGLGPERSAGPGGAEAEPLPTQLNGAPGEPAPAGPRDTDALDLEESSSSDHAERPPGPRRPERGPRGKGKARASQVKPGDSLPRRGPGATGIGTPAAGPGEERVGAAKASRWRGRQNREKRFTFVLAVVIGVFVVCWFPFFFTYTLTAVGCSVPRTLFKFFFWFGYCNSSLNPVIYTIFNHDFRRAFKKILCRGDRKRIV", "assay": "Selectivity interaction (Panel of non-epigenetic targets (kinases, GPCRs, ion channels, and transporters, Eurofins) ) EUB0000271b ADRA2A", "conditions": "at 1 µM"}, "[7]": {"biological_target": "Homeodomain-interacting protein kinase 1 (Homo sapiens, UniProt Q86Z02)", "sequence (Q86Z02 whole entry, looked up)": "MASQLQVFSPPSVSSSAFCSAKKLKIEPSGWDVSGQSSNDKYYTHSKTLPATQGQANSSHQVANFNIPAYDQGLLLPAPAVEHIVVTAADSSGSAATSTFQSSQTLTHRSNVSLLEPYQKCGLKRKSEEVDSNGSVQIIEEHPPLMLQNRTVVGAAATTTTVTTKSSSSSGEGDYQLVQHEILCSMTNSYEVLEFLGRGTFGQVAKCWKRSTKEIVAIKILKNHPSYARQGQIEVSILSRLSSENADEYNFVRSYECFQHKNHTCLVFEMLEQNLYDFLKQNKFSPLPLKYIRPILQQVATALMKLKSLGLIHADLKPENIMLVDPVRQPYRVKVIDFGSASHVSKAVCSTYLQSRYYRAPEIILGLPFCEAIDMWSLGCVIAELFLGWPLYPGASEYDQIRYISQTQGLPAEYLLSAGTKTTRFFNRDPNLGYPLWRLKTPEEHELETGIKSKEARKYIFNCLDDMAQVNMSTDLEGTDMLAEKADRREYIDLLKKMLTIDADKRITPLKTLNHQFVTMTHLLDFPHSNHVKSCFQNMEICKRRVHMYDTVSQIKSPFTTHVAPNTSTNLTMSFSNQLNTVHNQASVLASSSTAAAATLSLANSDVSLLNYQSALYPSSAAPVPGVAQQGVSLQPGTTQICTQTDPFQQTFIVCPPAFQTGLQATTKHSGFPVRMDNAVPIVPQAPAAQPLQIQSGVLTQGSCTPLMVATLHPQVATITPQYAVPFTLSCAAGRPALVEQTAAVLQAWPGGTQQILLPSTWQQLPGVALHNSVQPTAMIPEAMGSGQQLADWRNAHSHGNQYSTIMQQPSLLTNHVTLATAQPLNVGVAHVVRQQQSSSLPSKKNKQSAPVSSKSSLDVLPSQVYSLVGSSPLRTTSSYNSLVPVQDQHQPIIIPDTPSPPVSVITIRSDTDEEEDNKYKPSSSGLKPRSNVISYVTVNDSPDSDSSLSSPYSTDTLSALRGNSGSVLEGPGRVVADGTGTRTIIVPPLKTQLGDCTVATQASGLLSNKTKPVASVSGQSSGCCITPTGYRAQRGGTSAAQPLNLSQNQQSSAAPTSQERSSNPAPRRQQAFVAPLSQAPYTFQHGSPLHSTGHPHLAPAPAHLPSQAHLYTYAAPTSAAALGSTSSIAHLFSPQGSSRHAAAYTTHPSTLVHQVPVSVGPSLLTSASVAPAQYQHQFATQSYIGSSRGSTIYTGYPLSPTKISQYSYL", "assay": "Selectivity interaction (KinomeScan (DiscoverX)) EUB0000595a HIPK1", "conditions": "at 10 µM"}, "[8]": {"biological_target": "Dual specificity protein kinase CLK3 (Homo sapiens, UniProt P49761)", "sequence (P49761 whole entry, looked up)": "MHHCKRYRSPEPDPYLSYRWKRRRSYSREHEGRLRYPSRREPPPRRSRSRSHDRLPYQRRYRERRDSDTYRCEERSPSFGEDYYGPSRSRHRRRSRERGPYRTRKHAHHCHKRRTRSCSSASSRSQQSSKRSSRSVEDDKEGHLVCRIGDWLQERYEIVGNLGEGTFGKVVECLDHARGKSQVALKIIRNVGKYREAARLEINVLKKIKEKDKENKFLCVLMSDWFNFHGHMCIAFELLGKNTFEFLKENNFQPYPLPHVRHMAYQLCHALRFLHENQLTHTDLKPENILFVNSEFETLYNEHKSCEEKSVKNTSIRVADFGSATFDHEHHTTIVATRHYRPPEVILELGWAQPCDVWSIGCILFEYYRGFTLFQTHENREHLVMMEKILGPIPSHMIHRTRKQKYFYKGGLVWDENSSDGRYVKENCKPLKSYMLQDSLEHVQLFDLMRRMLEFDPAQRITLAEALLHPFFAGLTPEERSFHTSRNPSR", "assay": "Selectivity interaction (KinomeScan (DiscoverX)) EUB0000092b CLK3", "conditions": "at 10 µM"}, "[9]": {"assay": "Selectivity interaction (KinomeScan (DiscoverX)) EUB0000045b CDK2H", "conditions": "at 1 µM"}, "[10]": {"biological_target": "T1, Ribosomal protein S6 kinase alpha-1", "assay": "Selectivity interaction (KinomeScan (DiscoverX)) EUB0000045b RPS6KA1", "conditions": "at 10 µM"}, "[11]": {"biological_target": "Serine/threonine-protein kinase pim-3 (Homo sapiens) (UniProt Q86V86)", "assay": "Selectivity interaction (KinomeScan (DiscoverX)) EUB0000607a PIM3", "conditions": "at 10 µM"}, "[12]": {"biological_target": "Non-receptor tyrosine-protein kinase TYK2 (Homo sapiens, UniProt P29597)", "sequence (P29597 whole entry)": "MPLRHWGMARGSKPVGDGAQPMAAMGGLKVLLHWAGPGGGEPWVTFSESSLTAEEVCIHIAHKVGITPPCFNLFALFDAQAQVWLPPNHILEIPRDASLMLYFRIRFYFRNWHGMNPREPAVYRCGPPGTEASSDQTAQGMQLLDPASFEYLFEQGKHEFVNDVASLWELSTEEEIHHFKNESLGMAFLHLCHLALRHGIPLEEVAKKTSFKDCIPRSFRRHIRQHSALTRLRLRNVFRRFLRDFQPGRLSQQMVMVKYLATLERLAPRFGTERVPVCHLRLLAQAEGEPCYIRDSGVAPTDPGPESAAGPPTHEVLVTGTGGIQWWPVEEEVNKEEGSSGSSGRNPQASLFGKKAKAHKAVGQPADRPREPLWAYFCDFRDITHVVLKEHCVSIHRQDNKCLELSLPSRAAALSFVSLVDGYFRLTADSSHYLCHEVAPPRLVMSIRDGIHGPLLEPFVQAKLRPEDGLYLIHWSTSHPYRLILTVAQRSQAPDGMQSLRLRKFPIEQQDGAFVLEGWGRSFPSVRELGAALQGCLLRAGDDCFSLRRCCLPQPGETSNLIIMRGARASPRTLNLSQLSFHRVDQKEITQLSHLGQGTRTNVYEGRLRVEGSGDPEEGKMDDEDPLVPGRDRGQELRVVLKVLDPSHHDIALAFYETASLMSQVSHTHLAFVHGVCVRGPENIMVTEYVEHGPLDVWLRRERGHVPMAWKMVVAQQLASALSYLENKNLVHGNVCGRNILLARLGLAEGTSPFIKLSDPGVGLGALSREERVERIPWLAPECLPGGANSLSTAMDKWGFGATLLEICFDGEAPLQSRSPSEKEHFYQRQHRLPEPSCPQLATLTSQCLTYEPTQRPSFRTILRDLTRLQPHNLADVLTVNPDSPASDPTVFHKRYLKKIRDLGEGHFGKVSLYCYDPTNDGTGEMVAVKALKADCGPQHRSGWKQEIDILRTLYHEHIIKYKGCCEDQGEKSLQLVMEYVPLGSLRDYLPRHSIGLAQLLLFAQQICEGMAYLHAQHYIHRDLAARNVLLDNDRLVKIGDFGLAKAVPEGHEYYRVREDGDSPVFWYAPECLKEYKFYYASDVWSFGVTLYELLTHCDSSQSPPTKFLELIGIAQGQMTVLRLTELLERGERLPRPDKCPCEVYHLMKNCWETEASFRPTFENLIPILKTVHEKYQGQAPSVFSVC", "assay": "Selectivity interaction (KinomeScan (DiscoverX)) EUB0000607a TYK2", "conditions": "at 10 µM"}}}
{"compound": "COc1cc(Nc2nc(C)cc(-c3cnn4nc(OC)ccc34)n2)cc(C(F)(F)F)c1", "values": [{"measurement": "% of control", "setting": "[1]", "result": 100, "unit": "%"}]}
{"compound": "CN(C)C/C=C/C(=O)Nc1ccc(C(=O)N2CCCC(Nc3ncc(Cl)c(-c4c[nH]c5ccccc45)n3)C2)cc1", "note": "(configuration not stated)", "values": [{"measurement": "% of control", "setting": "[2]", "result": 73, "unit": "%"}, {"measurement": "% of control", "setting": "[3]", "result": 95, "unit": "%"}]}
{"compound": "CC[C@@H]1[C@H](F)C(=O)N[C@@H]1COc1nccc2cc(C(N)=O)c(OC)cc12", "note": "[ZIMLOVISERTIB]", "values": [{"measurement": "% of inhibition", "setting": "[4]", "result": 58.9, "unit": "%"}]}
{"compound": "Cc1cc(CN)cc(C)c1-c1ncn(C)c1-c1cncn1C", "values": [{"measurement": "dTagg", "setting": "[5]", "result": 0.2, "unit": "K"}]}
{"compound": "Cc1cc(C)cc([C@@H]2c3cc(C)ccc3NC(=O)CN2C(=O)c2ccc(Br)s2)c1", "values": [{"measurement": "% of inhibition", "setting": "[6]", "result": -8, "unit": "%"}]}
{"compound": "COCC(=O)NC/C=C/c1ccc2ncnc(Nc3ccc(Oc4ccc(C)nc4)c(C)c3)c2c1", "note": "[CP-724714]", "values": [{"measurement": "% of control", "setting": "[7]", "result": 88, "unit": "%"}]}
{"compound": "CCC(=O)N1CCN(c2ccc(-n3c(=O)ccc4cnc5ccc(-c6cnc7ccccc7c6)cc5c43)cc2C(F)(F)F)CC1", "values": [{"measurement": "% of control", "setting": "[8]", "result": 43, "unit": "%"}]}
{"compound": "C=CC(=O)Nc1cc(-n2c(=O)ccc3cnc4ccc(-c5ccc(NS(C)(=O)=O)cc5)cc4c32)ccc1C", "values": [{"measurement": "% of control", "setting": "[9]", "result": 100, "unit": "%"}, {"measurement": "% of control", "setting": "[10]", "result": 78, "unit": "%"}]}
{"compound": "CNC(=O)Nc1ccc(-c2nc(N3CC4CCC(C3)O4)c3cnn(C4CCC5(CC4)OCCO5)c3n2)cc1", "values": [{"measurement": "% of control", "setting": "[11]", "result": 100, "unit": "%"}, {"measurement": "% of control", "setting": "[12]", "result": 100, "unit": "%"}]}
